The values below come from paper PMC7736828 (2020).

For experiment [1], the system named is 147 Lla (RNA, riboswitch) AAAAUAGAAUAAAUACUCCACCGGGAGUUAAAUCGUAUGAACGAUUGUUUGCAUUUCAGUAGGUCUGAGAAGAAAUGUAGAUAGUCGUUCUUUUUUUAGCUGAGGAGGCGAAAAUGACUUGGCUAUAUCUACUAAUAGCAGGAAUUU
The experiment in a line: in vitro transcription termination assay. The following applies: 1.8 mM NTPs, 37 °C; for EC50: E. coli RNA polymerase, 8 min, co-transcriptional, full-length fraction; for binding: highest tested 10 mM.

Experiment [2] concerns GGAM-3 (Bub 59) (RNA, mRNA element) GGGAUCCAUCCGGGGUACCGCUCCCGCAAGUUGAUCGCGCUCGGUACAAGCGCGAAAUC
Nature of the experiment: in-line probing and in vitro transcription. The following applies: 20 mM Mg2+, 100 mM K+; initial experiments, data not shown; highest concentration not stated.

Experiment [3] deals with GGAM-4 (Msu 80) (RNA, mRNA element) GGGAAACUAAGGUCCGCCCGCUAGGCCGGCCGCGCCUCGACGCGCCGGCUCUCGUCAAUCGAACACGCGCGGUACCCAUG
Nature of the experiment: in-line probing and in vitro transcription. The settings on record: 20 mM Mg2+, 100 mM K+; initial experiments, data not shown; highest concentration not stated.

For experiment [4], the system named is GGAM-6 (Sru 111) (RNA, mRNA element) GGGUCAAUACUCGUAUCGGACGGCAAGCAAUCGCCUGCUUGCCAGAUAAGGUGUCCAUAGACACUGGAACGGGUUAUUCAGGCCAGAUAAGAUCGCAUUCUUAUCUGGCCU
Nature of the experiment: in-line probing and in vitro transcription. The following applies: 20 mM Mg2+, 100 mM K+; initial experiments, data not shown; highest concentration not stated.

The test system of experiment [5] is GGAM-3 (Bub 73) (RNA, mRNA element) GGGAUCCAUCCGGGGUACCGCUCCCGCAAGUUGAUCGCGCUCGGUACAAGCGCGAAAUCAGGAGCGGUACGCC
The experiment in a line: in-line probing and in vitro transcription. The settings on record: 20 mM Mg2+, 100 mM K+; initial experiments, data not shown; highest concentration not stated.

Experiment [6] deals with 95 Lla M2 (U67A) (RNA, riboswitch) GGGAAAAUAGAAUAAAUACUCCACCGGGAGUUAAAUCGUAUGAACGAUUGUUUGCAUUUCAGUAGGACUGAGAAGAAAUGUAGAUAGUCGUUCUU
The experiment in a line: in-line probing. The settings on record: 20 mM Mg2+, 100 mM K+; 50 mM Tris-HCl pH 8.3 (at 23 °C); highest tested 10 mM.

Experiment [7] concerns 95 Lla M1 (G66C) (RNA, riboswitch) GGGAAAAUAGAAUAAAUACUCCACCGGGAGUUAAAUCGUAUGAACGAUUGUUUGCAUUUCAGUAGCUCUGAGAAGAAAUGUAGAUAGUCGUUCUU
Nature of the experiment: in-line probing. The following applies: 20 mM Mg2+, 100 mM K+; 50 mM Tris-HCl pH 8.3 (at 23 °C); highest tested 10 mM.

Experiment [8] has as its system 95 Lla M3 (G72C) (RNA, riboswitch) GGGAAAAUAGAAUAAAUACUCCACCGGGAGUUAAAUCGUAUGAACGAUUGUUUGCAUUUCAGUAGGUCUGACAAGAAAUGUAGAUAGUCGUUCUU
The experiment in a line: in-line probing. The following applies: 20 mM Mg2+, 100 mM K+; 50 mM Tris-HCl pH 8.3 (at 23 °C); highest tested 10 mM.

Experiment [9] deals with GGAM-2 (Cfi 63) (RNA, mRNA element) GGAAUGGUACGGUCGUACCAGAACCGUGCGCGGGACGGCGGACCUGACACCCGGCGCGCAGCG
The experiment in a line: in-line probing and in vitro transcription. The settings on record: 20 mM Mg2+, 100 mM K+; initial experiments, data not shown; highest concentration not stated.

The subject of experiment [10] is 95 Lla (RNA, riboswitch) GGGAAAAUAGAAUAAAUACUCCACCGGGAGUUAAAUCGUAUGAACGAUUGUUUGCAUUUCAGUAGGUCUGAGAAGAAAUGUAGAUAGUCGUUCUU
Nature of the experiment: in-line probing. The settings on record: 20 mM Mg2+, 100 mM K+, 50 mM Tris-HCl pH 8.3 (at 23 °C); for apparent KD: ~48 h; for binding: highest tested 10 mM.

The subject of experiment [11] is GGAM-5 (Nov 77) (RNA, mRNA element) GGGUGGAUGCGCCGAGAAUAGAGUAGCAGGGUGGUGUCUCCUGCGCCCGUAAGGGUUCUUCCCAGCCACGGCGUCAA
Nature of the experiment: in-line probing and in vitro transcription. The settings on record: 20 mM Mg2+, 100 mM K+; initial experiments, data not shown; highest concentration not stated.

For experiment [12], the system named is 95 Lla M4 (G62C) (RNA, riboswitch) GGGAAAAUAGAAUAAAUACUCCACCGGGAGUUAAAUCGUAUGAACGAUUGUUUGCAUUUCACUAGGUCUGAGAAGAAAUGUAGAUAGUCGUUCUU
Nature of the experiment: in-line probing. The settings on record: 20 mM Mg2+, 100 mM K+; 50 mM Tris-HCl pH 8.3 (at 23 °C); up to 10 mM; folding differs from wt.

Experiment [13] concerns 92 Rti (RNA, riboswitch) GGGACAAUUGAAGCAUCUGCCGCCGGGUAGACCAAGAACAAAGCAUGUGCGCCCCUAUCGUUAGGCCAUAGAAGAUAGGGGAAAGCGCAUGC
Nature of the experiment: in-line probing. The following applies: 20 mM Mg2+, 100 mM K+, 50 mM Tris-HCl pH 8.3 (at 23 °C), ~48 h.

Experiment [14] deals with GGAM-4 (Msu 98) (RNA, mRNA element) GGGCGACAGCCUCUCCUCGCGAAACUAAGGUCCGCCCGCUAGGCCGGCCGCGCCUCGACGCGCCGGCUCUCGUCAAUCGAACACGCGCGGUACCCAUG
Nature of the experiment: in-line probing and in vitro transcription. The settings on record: 20 mM Mg2+, 100 mM K+; initial experiments, data not shown; highest concentration not stated.

Experiment [15] relates to GGAM-2 (Cfi 80) (RNA, mRNA element) GGUCGCAGGAAUGGUACGGUCGUACCAGAACCGUGCGCGGGACGGCGGACCUGACACCCGGCGCGCAGCGGUCGCCCACC
The experiment in a line: in-line probing and in vitro transcription. The settings on record: 20 mM Mg2+, 100 mM K+; initial experiments, data not shown; highest concentration not stated.

By EC50 is commonly meant the concentration needed to bring the measured effect to its halfway point. A higher EC50 goes with a need for much substance. Usually apparent KD stands for a dissociation constant that holds for the conditions of the assay. Consider `N=C(N)N`, for which the EC50 in [1] came to 260 ± 30 µM. Moreover, the binding entry in experiment [2], in [3], in [4], in [5], in [6] and in experiment [7] was “no” throughout. In addition, the binding entry in experiment [8] is given as “no”; in experiment [9] it was “no”; in experiment [11], “no”; in experiment [12], “weak”; in experiment [14] it was “no”; in [15], “no”. The “apparent KD” value is 210 ± 20 µM in [10] and 190 ± 30 µM in experiment [13].
Turning to `NC(N)=O`, the binding result in [1] and in experiment [10] was “no” each time.
With `CNC(=N)N`, in experiment [1], the EC50 amounted to 2700 ± 700 µM. Further, the “apparent KD” value in [10] (Figure 5 legend prints ±0.6) was 4100 ± 500 µM.
Consider `N=C(N)NCCC[C@H](N)C(=O)O`, for which the binding entry in experiment [1] and in experiment [10] was “no” each time.
On to `N=C(N)NN`, for which the EC50 in [1] came to 3800 ± 500 µM. Further, the “apparent KD” value in experiment [10] amounted to 7500 ± 800 µM.
